In brackets after ≈: the same amount, converted by molar mass. Where two headings read alike, the source gives them in different places.
Key:
[1] = test system: MRSA isolate TCH 1516; assay: Resistance acquisition during serial passage; format: cell-based, Staphylococcus aureus; details: serial passage, within 7 days, stable thereafter
Protocol: MRSA isolate TCH 1516 was grown to the stationary phase (OD650 = 1.0) in 10 mL of MH broth. […] The second highest drug concentration resulting in bacterial growth (OD650 >1.0) was used as the inoculum after a 1:1,000 dilution for subsequent steps, every 24 hours, for up to 21 days.

[2] = test system: MRSA isolates; assay: MIC/MBC, CLSI broth microdilution, MRSA isolates; format: cell-based, Staphylococcus aureus
[3] = test system: MRSA isolate TCH 1516; assay: Single-step resistance development; format: cell-based, Staphylococcus aureus
Protocol: For the single-step study, bacteria were grown to the stationary phase as described above. Bacteria at a concentration of 1E9 CFU were then plated onto C59 and vancomycin-loaded plates containing 1×, 2×, 4×, and 8× MIC concentrations of the therapeutic agents with 1% DMSO. Bacteria were incubated at 37°C for 48 hours, and colony counts were enumerated to calculate the frequency of resistance development, as described in the literature ([45], [46]).

[4] = test system: MRSA isolate SAD05 biofilms; format: cell-based, Staphylococcus aureus; details: 72-hour biofilms of SAD05, MBEC assay
[5] = test system: Staphylococcus epidermidis isolates; assay: microbe, parasite or virus in culture; format: cell-based
[6] = test system: MRSA isolates SA LL 06 and TCH 1516; assay: Kill kinetics against stationary-phase MRSA; format: cell-based, Staphylococcus aureus; details: shaking, 37°C
Protocol: MRSA isolates, TCH 1516 and SA LL 06, were grown to the stationary phase, and the rate of bacterial killing was determined. Frozen bacterial stocks were streaked onto TSA plates and grown overnight. A single colony was selected and incubated overnight in LB broth at 37°C with constant orbital shaking at 200 RPM. Next, bacterial suspension was washed twice with 150 mM sodium chloride and resuspended in MH broth at a concentration of 1.2E9 CFU/mL. […] Glass tubes containing 5 mL of bacteria and drug solutions were grown in a shaking incubator at 37°C. At 0, 4, 8, and 24 hours, bacterial suspensions were collected, serially diluted, and plated onto a blood agar plate. Bacteria were allowed to grow for 24 hours and were enumerated to yield colony-forming units per milliliter.

[7] = Staphylococcus aureus, MRSA, pH 5.5, MRSA 0606, pH 5.5
[8] = Staphylococcus aureus, MRSA, pH 5.5, MRSA 0608, pH 5.5
[9] = Staphylococcus aureus, MRSA, pH 5.5, MRSA 0634, pH 5.5
[10] = Staphylococcus aureus, MRSA, pH 5.5, MRSA 0641, pH 5.5
[11] = Staphylococcus aureus, MRSA, pH 5.5, MRSA 0646, pH 5.5
[12] = Staphylococcus aureus, MRSA, pH 5.5, TCH 1516, pH 5.5
[13] = Staphylococcus aureus, MRSA, pH 6.5, MRSA 0606, pH 6.5
[14] = Staphylococcus aureus, MRSA, pH 6.5, MRSA 0608, pH 6.5
[15] = Staphylococcus aureus, MRSA, pH 6.5, MRSA 0634, pH 6.5
[16] = Staphylococcus aureus, MRSA, pH 6.5, MRSA 0641, pH 6.5
[17] = Staphylococcus aureus, MRSA, pH 6.5, MRSA 0646, pH 6.5
[18] = Staphylococcus aureus, MRSA, pH 6.5, TCH 1516, pH 6.5
[19] = 21 Staphylococcus epidermidis isolates

CN[C@H](CC(C)C)C(=O)N[C@H]1C(=O)N[C@@H](CC(N)=O)C(=O)N[C@H]2C(=O)N[C@H]3C(=O)N[C@H](C(=O)N[C@H](C(=O)O)c4cc(O)cc(O)c4-c4cc3ccc4O)[C@H](O)c3ccc(c(Cl)c3)Oc3cc2cc(c3O[C@@H]2O[C@H](CO)[C@@H](O)[C@H](O)[C@H]2O[C@H]2C[C@](C)(N)[C@H](O)[C@H](C)O2)Oc2ccc(cc2Cl)[C@H]1O [Vancomycin, vancomycin, reference compound]
initial increase in MIC [1]: sixfold | MBC ([2]; MRSA 0606, pH 7.4): 2 µg/mL (≈ 1.38 µM) | MIC ([2]; MRSA 0606, pH 7.4): 2 µg/mL (≈ 1.38 µM) | MBC ([2]; MRSA 0608, pH 7.4): 6 µg/mL (≈ 4.14 µM) | MIC ([2]; MRSA 0608, pH 7.4): 2 µg/mL (≈ 1.38 µM) | MBC ([2]; MRSA 0634, pH 7.4): 6 µg/mL (≈ 4.14 µM) | MIC ([2]; MRSA 0634, pH 7.4): 2 µg/mL (≈ 1.38 µM) | MBC ([2]; MRSA 0641, pH 7.4): 4 µg/mL (≈ 2.76 µM) | MIC ([2]; MRSA 0641, pH 7.4): 1 µg/mL (≈ 0.69 µM) | MBC ([2]; MRSA 0646, pH 7.4): 6 µg/mL (≈ 4.14 µM) | MIC ([2]; MRSA 0646, pH 7.4): 2 µg/mL (≈ 1.38 µM) | MIC90 ([2]; Staphylococcus aureus, MRSA, 39 evaluated MRSA isolates, CLSI broth microdilution): 2 µg/mL (≈ 1.38 µM) | MIC ([2]; Staphylococcus aureus, MRSA, SA LL 06, as given for the kill kinetic assay): 1 µg/mL (≈ 0.69 µM) | MIC ([2]; Staphylococcus aureus, MRSA, TCH 1516, as given for the kill kinetic assay): 4 µg/mL (≈ 2.76 µM) | MBC [2, 7]: 2 µg/mL (≈ 1.38 µM) | MIC [2, 7]: 2 µg/mL (≈ 1.38 µM) | MBC [2, 8]: 4 µg/mL (≈ 2.76 µM) | MIC [2, 8]: 4 µg/mL (≈ 2.76 µM) | MBC [2, 9]: 8 µg/mL (≈ 5.52 µM) | MIC [2, 9]: 2 µg/mL (≈ 1.38 µM) | MBC [2, 10]: 2 µg/mL (≈ 1.38 µM) | MIC [2, 10]: 2 µg/mL (≈ 1.38 µM) | MBC [2, 11]: 8 µg/mL (≈ 5.52 µM) | MIC [2, 11]: 2 µg/mL (≈ 1.38 µM) | MBC [2, 12]: 4 µg/mL (≈ 2.76 µM) | MIC [2, 12]: 2 µg/mL (≈ 1.38 µM) | MBC ([2]; Staphylococcus aureus, MRSA, pH 5.5, read-out: Average MBC, average of six MRSA isolates, pH 5.5): 4.7 µg/mL (≈ 3.24 µM) | MIC ([2]; Staphylococcus aureus, MRSA, pH 5.5, read-out: Average MIC, average of six MRSA isolates, pH 5.5): 2.3 µg/mL (≈ 1.59 µM) | MBC [2, 13]: 4 µg/mL (≈ 2.76 µM) | MIC [2, 13]: 1 µg/mL (≈ 0.69 µM) | MBC [2, 14]: 2 µg/mL (≈ 1.38 µM) | MIC [2, 14]: 2 µg/mL (≈ 1.38 µM) | MBC [2, 15]: 4 µg/mL (≈ 2.76 µM) | MIC [2, 15]: 2 µg/mL (≈ 1.38 µM) | MBC [2, 16]: 2 µg/mL (≈ 1.38 µM) | MIC [2, 16]: 1 µg/mL (≈ 0.69 µM) | MBC [2, 17]: 2 µg/mL (≈ 1.38 µM) | MIC [2, 17]: 2 µg/mL (≈ 1.38 µM) | MBC [2, 18]: 2 µg/mL (≈ 1.38 µM) | MIC [2, 18]: 1 µg/mL (≈ 0.69 µM) | MBC ([2]; Staphylococcus aureus, MRSA, pH 6.5, read-out: Average MBC, average of six MRSA isolates, pH 6.5): 2.3 µg/mL (≈ 1.59 µM) | MIC ([2]; Staphylococcus aureus, MRSA, pH 6.5, read-out: Average MIC, average of six MRSA isolates, pH 6.5): 1.5 µg/mL (≈ 1.04 µM) | MBC ([2]; Staphylococcus aureus, MRSA, pH 7.4, read-out: Average MBC, average of six MRSA isolates, pH 7.4): 4.2 µg/mL (≈ 2.9 µM) | MIC ([2]; Staphylococcus aureus, MRSA, pH 7.4, read-out: Average MIC, average of six MRSA isolates, pH 7.4): 1.7 µg/mL (≈ 1.17 µM) | MBC ([2]; Staphylococcus aureus, MRSA, read-out: MBC90, 39 evaluated MRSA isolates, CLSI broth microdilution): 16 µg/mL (≈ 11 µM) | MBC ([2]; TCH 1516, pH 7.4): 1 µg/mL (≈ 0.69 µM) | MIC ([2]; TCH 1516, pH 7.4): 1 µg/mL (≈ 0.69 µM) | change of MIC and MBC with the reduction in pH ([2]; six MRSA isolates, pH lowered to 5.5): increased | frequency of resistance acquisition ([3]; TCH 1516, 2× MIC): 1.83 × 10^−8 ± 7.10 × 10^−9 | frequency of resistance acquisition ([3]; TCH 1516, 4× MIC): 1.56 × 10^−9 ± 7.12 × 10^−10 | frequency of resistance acquisition ([3]; TCH 1516, 8× MIC): 5.77 × 10^−10 ± 2.77 × 10^−10 | growth on drug-loaded plates ([3]; TCH 1516 stationary phase, C59 as low as 2× MIC, vancomycin up to 8× MIC): bacterial growth was observed | concentration that completely eradicated biofilms [4]: did not demonstrate activity against MRSA biofilms | MBC range [5, 19]: 2 to 16 µg/mL | MIC range [5, 19]: 1 to 8 µg/mL | MIC90 ([5]; Staphylococcus epidermidis): 4 µg/mL (≈ 2.76 µM) | MBC ([5]; Staphylococcus epidermidis, read-out: MBC90): 8 µg/mL (≈ 5.52 µM) | bacterial killing after 24 hours ([6]; stationary-phase SA LL 06, C59 at 1× and 2× MIC): complete lack of bacterial inhibition | bacterial killing after 24 hours ([6]; stationary-phase TCH 1516): significantly higher bacterial burden
